Results on 19 molecules are retold here after the Kinase Knowledgebase extract (Sharma et al. 2016).

A value given as a limit tells only on which side of the number the result lay.

The target in this assay is MAPK14 (UniProt Q16539). Description: Inhibition of MAPK14 Kinase Activity.
Chain of MAPK14 (Q16539 whole entry, looked up): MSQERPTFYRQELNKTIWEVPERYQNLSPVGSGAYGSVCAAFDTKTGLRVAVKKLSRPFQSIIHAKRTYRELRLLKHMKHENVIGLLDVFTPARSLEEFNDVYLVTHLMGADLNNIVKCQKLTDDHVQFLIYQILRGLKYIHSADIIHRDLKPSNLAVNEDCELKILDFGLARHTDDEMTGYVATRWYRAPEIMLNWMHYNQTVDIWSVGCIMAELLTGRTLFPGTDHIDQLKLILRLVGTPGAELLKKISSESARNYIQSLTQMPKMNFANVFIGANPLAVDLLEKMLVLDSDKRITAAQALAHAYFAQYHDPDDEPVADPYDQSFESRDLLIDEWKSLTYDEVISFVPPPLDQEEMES
Usually IC50 stands for the point on the concentration scale where inhibition reaches its midpoint. A low value points to higher potency. As to `Cn1nc(C(C)(C)C)cc1NC(=O)Nc1cc(F)cc(OC2CCN(C(=O)c3cccc4cc[nH]c34)CC2)c1`, the IC50 is less than 5 µM.
`Cn1nc(C(C)(C)C)cc1NC(=O)Nc1ccc(C(=O)N2CCN(Cc3ccncc3)CC2)cc1` gave an IC50 of less than 5 µM.
`Cn1nc(C(C)(C)C)cc1NC(=O)Nc1cccc(OC2CCN(C(=O)c3ccccc3)CC2)c1`: the IC50 is less than 5 µM.
Consider `Cn1nc(C(C)(C)C)cc1NC(=O)Nc1ccc(OC2CCN(C(=O)c3ccc(Cl)s3)CC2)cc1`, for which the IC50 is less than 5 µM.
The result for `Cc1ccsc1C(=O)N1CCC(Oc2cccc(NC(=O)Nc3cc(C(C)(C)C)nn3C)c2)CC1` reads less than 5 µM.
For the molecule `CC(C)(C)c1cc(NC(=O)Nc2ccc(OC3CCN(C(=O)c4ccccc4Cl)CC3)cc2)[nH]n1`, the IC50 was less than 5 µM.
The molecule `Cn1nc(C(C)(C)C)cc1NC(=O)Nc1ccc(CN2CCN(C(=O)c3ccncc3)CC2)cc1` yielded an IC50 of less than 5 µM.
`Cc1ccc(-n2nc(C(C)(C)C)cc2NC(=O)Nc2ccc(OCCC3CCN(C(=O)c4c(Cl)cccc4Cl)CC3)c3ccccc23)cc1` gave an IC50 of less than 5 µM.
As for `Cn1nc(C(C)(C)C)cc1NC(=O)Nc1ccc(N2CCN(C(=O)c3c(Cl)cccc3Cl)CC2)cc1`, the IC50 was less than 5 µM.
In turn, `Cc1ccc(-n2nc(C(C)(C)C)cc2NC(=O)Nc2ccc(N3CCN(C(=O)CC(C)(C)C)CC3)cc2)cc1` gave an IC50 of less than 5 µM.
Take `Cn1nc(C(C)(C)C)cc1NC(=O)Nc1cccc(OC2CCN(C(=O)c3c(Cl)cncc3Cl)CC2)c1`: the IC50 was less than 5 µM.
Take `Cc1ccc(-n2nc(C(C)(C)C)cc2NC(=O)Nc2ccc(N3CCN(C(=O)c4c(Cl)cccc4Cl)CC3)cc2)cc1`: the IC50 was less than 5 µM.
`Cn1nc(C(C)(C)C)cc1NC(=O)Nc1ccc(CN2CCN(C(=O)c3ccc(F)cc3F)CC2)cc1F`: the IC50 is less than 5 µM.
As to `Cc1ccc(-n2nc(C(C)(C)C)cc2NC(=O)Nc2ccc(N3CCN(S(=O)(=O)C4CC4)CC3)cc2)cc1`, the IC50 is less than 5 µM.
In the case of `Cc1cc(C(=O)N2CCC(Oc3cc(F)cc(NC(=O)Nc4cc(C(C)(C)C)nn4C)c3)CC2)c(C)[nH]1`, the IC50 is less than 5 µM.
`Cn1nc(C(C)(C)C)cc1NC(=O)Nc1cc(F)cc(OC2CCN(C(=O)C3CC3(Cl)Cl)CC2)c1` (centres undefined): the IC50 is less than 5 µM.
The result for `COc1ccc(C(=O)N2CCC(Oc3ccc(NC(=O)Nc4cc(C(C)(C)C)nn4C)cc3)CC2)cn1` reads less than 5 µM; that for `Cn1nc(C(C)(C)C)cc1NC(=O)Nc1cc(OC2CCN(C(=O)c3c(F)cccc3F)CC2)cc(C(F)(F)F)c1`, less than 5 µM; that for `Cn1nc(C(C)(C)C)cc1NC(=O)Nc1ccc(OC2CCN(C(=O)c3c(F)cccc3F)CC2)cc1`, less than 5 µM.
